Results taken from patent US7049303B2, “Inhibition of viruses” (Medical Research Council, priority 2001, dated 2006).
Read-outs that look alike come from different tables or passages of the source.

Key:
HIV-1(IIIB) = experiment: Serial passage of HIV-1 infected CEM cell cultures with sub-toxic drug, cytopathic effect (giant cell formation); type: cell-based; conditions: for percentage of cytopathic effect (giant cell formation), passage number 1: passage 1; for percentage of cytopathic effect (giant cell formation), passage number 1 / percentage of cytopathic effect (giant cell formation), passage number 2 / percentage of cytopathic effect (giant cell formation), passage number 3 / percentage of cytopathic effect (giant cell formation), passage number 4 / percentage of cytopathic effect (giant cell formation), passage number 5 / percentage of cytopathic effect (giant cell formation), passage number 6 / percentage of cytopathic effect (giant cell formation), passage number 7: subcultivation every 5 days; for percentage of cytopathic effect (giant cell formation), passage number 2: passage 2; for percentage of cytopathic effect (giant cell formation), passage number 3: passage 3; for percentage of cytopathic effect (giant cell formation), passage number 4: passage 4; for percentage of cytopathic effect (giant cell formation), passage number 5: passage 5; for percentage of cytopathic effect (giant cell formation), passage number 6: passage 6; for percentage of cytopathic effect (giant cell formation), passage number 7: passage 7; for antiviral activity (inhibition of HIV replication) in words: HIV-1 infected CEM cells, sub-toxic concentrations, up to 7 passages
Procedure: HIV-1 infected CEM cells were subcultured every 4–5 days in the presence of sub-toxic concentrations (in the range of 10–20% of their respective IC50 value) of the compounds under test. At each sub-culture, cell-free supernatant (10–20 μl) was transferred to fresh 1 ml cell cultures. At regular intervals the cultures were inspected microscopically to assess the extent of any cytopathic effect (giant cell formation). As an alternative, it is also possible to perform an immunoassay to quantify viral p24 production.
The preliminary results for up to 7 passages are shown below in Table 3.

[1] = tested on: human T-lymphocytes (CEM/O cells); experiment: Toxicity: inhibition of proliferation of human T-lymphocytes (CEM/O cells); type: cell-based; conditions: read-out: IC50 (50% inhibitory concentration), proliferation of CEM/O cells
Procedure: Following synthesis, the various compounds were tested in vitro for toxicity, by measuring the IC50 (i.e. the concentration which caused 50% inhibition) in respect of the inhibitory effects of the compounds on the proliferation of human T-lymphocytes (CEM/O cells).

For O=C1NC2=NOCCC2=CN1[C@H]1C[C@H](O)[C@@H](CO)O1 [JA21, 6-(2-deoxy-β-D-ribofuranosyl)-3,4-dihydro-8H-pyrimido[4,5-c][1,2] oxazin-7-one, reference compound], the “percentage of cytopathic effect (giant cell formation), passage number 1” value (shortened to “percentage … passage number 1”) (HIV-1(IIIB); 400 μM) was 100%, the “percentage of cytopathic effect (giant cell formation), passage number 2” value (“percentage … passage number 2” for short) (HIV-1(IIIB); 400 μM) was 100% and the “percentage of cytopathic effect (giant cell formation), passage number 3” value (“percentage … passage number 3” below) (HIV-1(IIIB); 400 μM) was 25%. The “percentage of cytopathic effect (giant cell formation), passage number 4” value (shortened to “percentage … passage number 4”) (HIV-1(IIIB); 400 μM) was 50%, the “percentage of cytopathic effect (giant cell formation), passage number 5” value (“percentage … passage number 5” for short) (HIV-1(IIIB); 400 μM) was 37% and the “percentage of cytopathic effect (giant cell formation), passage number 6” value (“percentage … passage number 6” below) (HIV-1(IIIB); 400 μM) was 12%. For the same compound, the “percentage of cytopathic effect (giant cell formation), passage number 7” value (shortened to “percentage … passage number 7”) (HIV-1(IIIB); 400 μM) was 6% and the IC50 ([1]; T-lymphocyte) was 690 ± 14 µM.
With O=C1NC2=NOCCC2=CN1[C@@H]1O[C@H](CO)[C@@H](O)[C@H]1O [JA22, 6-(β-D-ribofuranosyl)-3,4-dihydro-8H-pyrimido[4,5-c][1,2] oxazin-7-one] the “percentage … passage number 1” value (HIV-1(IIIB); 400 μM) was 100%, the “percentage … passage number 2” value (HIV-1(IIIB); 400 μM) was 100% and the “percentage … passage number 3” value (HIV-1(IIIB); 400 μM) was 100%. For the same compound, the “percentage … passage number 4” value (HIV-1(IIIB); 400 μM) was 100%, the “percentage … passage number 5” value (HIV-1(IIIB); 400 μM) was 100% and the “percentage … passage number 6” value (HIV-1(IIIB); 400 μM) was 100%. The “percentage … passage number 7” value (HIV-1(IIIB); 400 μM) was 100% and the IC50 ([1]; T-lymphocyte) was 698 ± 11 µM.
With CNc1nc(N)nc2c1ncn2[C@@H]1O[C@H](CO)[C@@H](O)[C@H]1O [JA23, 2-amino-N^6-methyladenosine] the “percentage … passage number 1” value (HIV-1(IIIB); 400 μM) was 100%, the “percentage … passage number 2” value (HIV-1(IIIB); 400 μM) was 100% and the “percentage … passage number 3” value (HIV-1(IIIB); 400 μM) was 12%. For the same compound, the “percentage … passage number 4” value (HIV-1(IIIB); 400 μM) was 25%, the “percentage … passage number 5” value (HIV-1(IIIB); 400 μM) was 3% and the “percentage … passage number 6” value (HIV-1(IIIB); 400 μM) was 0%. For the same compound, the “percentage … passage number 7” value (HIV-1(IIIB); 400 μM) was 0%, the “antiviral activity (inhibition of HIV replication) in words” value (HIV-1(IIIB)) was “moderately effective” and the IC50 ([1]; T-lymphocyte) was 622 ± 8 µM.
With NNc1nc(N)nc2c1ncn2[C@@H]1O[C@H](CO)[C@@H](O)[C@H]1O [JA24, N^6-amino-9-β-D-ribofuranosyl-2,6-diaminopurine] the “percentage … passage number 1” value (HIV-1(IIIB); 4 μM) was 100%, the “percentage … passage number 2” value (HIV-1(IIIB); 4 μM) was 100% and the “percentage … passage number 3” value (HIV-1(IIIB); 4 μM) was 19%. The “percentage … passage number 4” value (HIV-1(IIIB); 4 μM) was 100%, the “percentage … passage number 5” value (HIV-1(IIIB); 4 μM) was 100% and the “percentage … passage number 6” value (HIV-1(IIIB); 4 μM) was 100%. The “percentage … passage number 7” value (HIV-1(IIIB); 4 μM) was 12%, the “percentage … passage number 1” value (HIV-1(IIIB); 10 μM) was 100% and the “percentage … passage number 2” value (HIV-1(IIIB); 10 μM) was 100%. For the same compound, the “percentage … passage number 3” value (HIV-1(IIIB); 10 μM) was 25%, the “percentage … passage number 4” value (HIV-1(IIIB); 10 μM) was 100% and the “percentage … passage number 5” value (HIV-1(IIIB); 10 μM) was 100%. The “percentage … passage number 6” value (HIV-1(IIIB); 10 μM) was 100%, the “percentage … passage number 7” value (HIV-1(IIIB); 10 μM) was 25% and the IC50 [1] was 62 ± 6 µM.
For NNc1ncnc2c1ncn2[C@@H]1O[C@H](CO)[C@@H](O)[C@H]1O [JA25, N^6-aminoadenosine], the “percentage … passage number 1” value (HIV-1(IIIB); 0.8 μM) was 100%, the “percentage … passage number 2” value (HIV-1(IIIB); 0.8 μM) was 100% and the “percentage … passage number 3” value (HIV-1(IIIB); 0.8 μM) was 87%. For the same compound, the “percentage … passage number 4” value (HIV-1(IIIB); 0.8 μM) was 100%, the “percentage … passage number 5” value (HIV-1(IIIB); 0.8 μM) was 100% and the “percentage … passage number 6” value (HIV-1(IIIB); 0.8 μM) was 100%. For the same compound, the “percentage … passage number 7” value (HIV-1(IIIB); 0.8 μM) was 100%, the “percentage … passage number 1” value (HIV-1(IIIB); 2 μM) was 100% and the “percentage … passage number 2” value (HIV-1(IIIB); 2 μM) was 100%. The “percentage … passage number 3” value (HIV-1(IIIB); 2 μM) was 100%, the “percentage … passage number 4” value (HIV-1(IIIB); 2 μM) was 100% and the “percentage … passage number 5” value (HIV-1(IIIB); 2 μM) was 100%. For the same compound, the “percentage … passage number 6” value (HIV-1(IIIB); 2 μM) was 100%, the “percentage … passage number 7” value (HIV-1(IIIB); 2 μM) was 100% and the IC50 ([1]; T-lymphocyte) was 12 ± 3 µM.
With CONc1ncnc2c1ncn2[C@@H]1O[C@H](CO)[C@@H](O)[C@H]1O [JA26, N^6-methoxyadenosine] the “percentage … passage number 1” value (HIV-1(IIIB); 4 μM) was 100%, the “percentage … passage number 2” value (HIV-1(IIIB); 4 μM) was 100% and the “percentage … passage number 3” value (HIV-1(IIIB); 4 μM) was 25%. For the same compound, the “percentage … passage number 4” value (HIV-1(IIIB); 4 μM) was 100%, the “percentage … passage number 5” value (HIV-1(IIIB); 4 μM) was 100% and the “percentage … passage number 6” value (HIV-1(IIIB); 4 μM) was 12%. For the same compound, the “percentage … passage number 7” value (HIV-1(IIIB); 4 μM) was 3%, the “percentage … passage number 1” value (HIV-1(IIIB); 10 μM) was 100% and the “percentage … passage number 2” value (HIV-1(IIIB); 10 μM) was 100%. The “percentage … passage number 3” value (HIV-1(IIIB); 10 μM) was 25%, the “percentage … passage number 4” value (HIV-1(IIIB); 10 μM) was 100% and the “percentage … passage number 5” value (HIV-1(IIIB); 10 μM) was 100%. For the same compound, the “percentage … passage number 6” value (HIV-1(IIIB); 10 μM) was 12%, the “percentage … passage number 7” value (HIV-1(IIIB); 10 μM) was 3% and the IC50 ([1]; T-lymphocyte) was 44 ± 2 µM.
With CN(N)c1ncnc2c1ncn2[C@@H]1O[C@H](CO)[C@@H](O)[C@H]1O [JA27, N^6-amino-N^6-methyladenosine] the “percentage … passage number 1” value (HIV-1(IIIB); 4 μM) was 100%, the “percentage … passage number 2” value (HIV-1(IIIB); 4 μM) was 100% and the “percentage … passage number 3” value (HIV-1(IIIB); 4 μM) was 6%. The “percentage … passage number 4” value (HIV-1(IIIB); 4 μM) was 25%, the “percentage … passage number 5” value (HIV-1(IIIB); 4 μM) was 25% and the “percentage … passage number 6” value (HIV-1(IIIB); 4 μM) was 0%. The “percentage … passage number 7” value (HIV-1(IIIB); 4 μM) was 0%, the “antiviral activity (inhibition of HIV replication) in words” value (HIV-1(IIIB)) was “moderately effective” and the IC50 ([1]; T-lymphocyte) was 17 ± 2 µM.
OC[C@H]1O[C@@H](n2cnc3c(NO)ncnc32)[C@H](O)[C@@H]1O [JA28, N^6hydroxyadenosine] was tested, and the “percentage … passage number 1” value (HIV-1(IIIB); 20 μM) was 100%, the “percentage … passage number 2” value (HIV-1(IIIB); 20 μM) was 100% and the “percentage … passage number 3” value (HIV-1(IIIB); 20 μM) was 19%. For the same compound, the “percentage … passage number 4” value (HIV-1(IIIB); 20 μM) was 100%, the “percentage … passage number 5” value (HIV-1(IIIB); 20 μM) was 100% and the “percentage … passage number 6” value (HIV-1(IIIB); 20 μM) was 100%. For the same compound, the “percentage … passage number 7” value (HIV-1(IIIB); 20 μM) was 100%, the “percentage … passage number 1” value (HIV-1(IIIB); 40 μM) was 100% and the “percentage … passage number 2” value (HIV-1(IIIB); 40 μM) was 100%. The “percentage … passage number 3” value (HIV-1(IIIB); 40 μM) was 50%, the “percentage … passage number 4” value (HIV-1(IIIB); 40 μM) was 100% and the “percentage … passage number 5” value (HIV-1(IIIB); 40 μM) was 100%. For the same compound, the “percentage … passage number 6” value (HIV-1(IIIB); 40 μM) was 75%, the “percentage … passage number 7” value (HIV-1(IIIB); 40 μM) was 6% and the IC50 ([1]; T-lymphocyte) was 156 ± 15 µM.
With O=c1nc(NO)ccn1[C@@H]1O[C@H](CO)[C@@H](O)[C@H]1O [JA29, N^4-hydroxycytidine, reference compound] the “percentage … passage number 1” value (HIV-1(IIIB); 0.8 μM) was 100%, the “percentage … passage number 2” value (HIV-1(IIIB); 0.8 μM) was 100% and the “percentage … passage number 3” value (HIV-1(IIIB); 0.8 μM) was 12%. The “percentage … passage number 4” value (HIV-1(IIIB); 0.8 μM) was 100%, the “percentage … passage number 5” value (HIV-1(IIIB); 0.8 μM) was 100% and the “percentage … passage number 6” value (HIV-1(IIIB); 0.8 μM) was 100%. For the same compound, the “percentage … passage number 7” value (HIV-1(IIIB); 0.8 μM) was 100%, the “percentage … passage number 1” value (HIV-1(IIIB); 2 μM) was 100% and the “percentage … passage number 2” value (HIV-1(IIIB); 2 μM) was 100%. For the same compound, the “percentage … passage number 3” value (HIV-1(IIIB); 2 μM) was 25%, the “percentage … passage number 4” value (HIV-1(IIIB); 2 μM) was 100% and the “percentage … passage number 5” value (HIV-1(IIIB); 2 μM) was 100%. For the same compound, the “percentage … passage number 6” value (HIV-1(IIIB); 2 μM) was 100%, the “percentage … passage number 7” value (HIV-1(IIIB); 2 μM) was 100% and the “antiviral activity (inhibition of HIV replication) in words” value (HIV-1(IIIB)) was “does not demonstrate any antiviral activity”. For the same compound, the IC50 ([1]; T-lymphocyte) was 16 ± 1 µM.
